# Source: ChEMBL document CHEMBL1152783, “Octahydrophenanthrene-2,7-diol analogues as dissociated glucocorticoid receptor agonists: discovery and lead exploration” (J Med Chem, 2009)
# How the values were obtained:
# Androgen receptor = target: T1, Androgen receptor (Homo sapiens, UniProt P10275); assay: Binding affinity to human androgen receptor
# T1 sequence (P10275 whole entry): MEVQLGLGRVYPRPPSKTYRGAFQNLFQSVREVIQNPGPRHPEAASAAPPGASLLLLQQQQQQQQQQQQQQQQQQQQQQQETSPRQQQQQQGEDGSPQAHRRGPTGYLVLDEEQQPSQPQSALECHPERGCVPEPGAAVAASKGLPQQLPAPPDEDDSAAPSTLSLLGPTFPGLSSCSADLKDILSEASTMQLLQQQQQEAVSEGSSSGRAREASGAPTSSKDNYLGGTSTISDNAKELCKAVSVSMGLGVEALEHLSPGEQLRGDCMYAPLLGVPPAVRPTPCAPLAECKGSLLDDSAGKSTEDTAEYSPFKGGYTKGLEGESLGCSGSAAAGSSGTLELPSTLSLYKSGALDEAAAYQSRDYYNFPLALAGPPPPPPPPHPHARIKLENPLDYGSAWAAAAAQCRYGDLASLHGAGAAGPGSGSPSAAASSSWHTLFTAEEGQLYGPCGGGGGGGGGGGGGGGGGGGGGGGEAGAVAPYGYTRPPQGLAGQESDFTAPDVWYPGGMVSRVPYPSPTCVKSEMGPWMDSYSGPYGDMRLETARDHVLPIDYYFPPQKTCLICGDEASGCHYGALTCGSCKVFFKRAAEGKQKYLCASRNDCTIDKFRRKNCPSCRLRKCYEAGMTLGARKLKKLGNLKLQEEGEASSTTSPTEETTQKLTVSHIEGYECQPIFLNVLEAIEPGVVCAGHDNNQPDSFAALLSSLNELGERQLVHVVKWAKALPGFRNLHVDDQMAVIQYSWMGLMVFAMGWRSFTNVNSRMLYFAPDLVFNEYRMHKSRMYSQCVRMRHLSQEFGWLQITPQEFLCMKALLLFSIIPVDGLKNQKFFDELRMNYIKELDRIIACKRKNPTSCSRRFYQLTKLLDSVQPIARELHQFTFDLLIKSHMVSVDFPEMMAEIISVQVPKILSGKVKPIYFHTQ
# Estrogen receptor = target: T2, Estrogen receptor (Homo sapiens, UniProt P03372); assay: Binding affinity to human ERalpha
# T2 sequence (P03372 whole entry): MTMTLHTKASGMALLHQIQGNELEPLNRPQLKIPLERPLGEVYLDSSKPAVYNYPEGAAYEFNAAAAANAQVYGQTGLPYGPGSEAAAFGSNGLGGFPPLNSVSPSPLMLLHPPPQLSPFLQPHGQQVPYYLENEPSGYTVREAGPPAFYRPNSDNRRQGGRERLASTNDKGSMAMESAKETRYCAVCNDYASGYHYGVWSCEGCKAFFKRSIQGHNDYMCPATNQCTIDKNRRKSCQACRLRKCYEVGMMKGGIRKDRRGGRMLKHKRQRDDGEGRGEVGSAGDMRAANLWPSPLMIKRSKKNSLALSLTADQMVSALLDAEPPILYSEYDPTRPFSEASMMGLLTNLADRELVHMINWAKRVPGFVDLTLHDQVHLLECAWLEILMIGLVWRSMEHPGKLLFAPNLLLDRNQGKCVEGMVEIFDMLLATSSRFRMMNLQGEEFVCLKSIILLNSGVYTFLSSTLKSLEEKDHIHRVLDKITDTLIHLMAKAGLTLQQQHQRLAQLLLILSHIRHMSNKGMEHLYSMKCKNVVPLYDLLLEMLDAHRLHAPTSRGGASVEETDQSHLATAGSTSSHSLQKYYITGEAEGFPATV
# Glucocorticoid receptor [1] = target: T3, Glucocorticoid receptor (Homo sapiens, UniProt P04150); assay: Transrepression activity at GR in human SW1353 cells assessed as inhibition of IL1-stimulated MMP13 production after 24 hrs by whole cell ELISA; type: cell-based
# T3 sequence (P04150 whole entry): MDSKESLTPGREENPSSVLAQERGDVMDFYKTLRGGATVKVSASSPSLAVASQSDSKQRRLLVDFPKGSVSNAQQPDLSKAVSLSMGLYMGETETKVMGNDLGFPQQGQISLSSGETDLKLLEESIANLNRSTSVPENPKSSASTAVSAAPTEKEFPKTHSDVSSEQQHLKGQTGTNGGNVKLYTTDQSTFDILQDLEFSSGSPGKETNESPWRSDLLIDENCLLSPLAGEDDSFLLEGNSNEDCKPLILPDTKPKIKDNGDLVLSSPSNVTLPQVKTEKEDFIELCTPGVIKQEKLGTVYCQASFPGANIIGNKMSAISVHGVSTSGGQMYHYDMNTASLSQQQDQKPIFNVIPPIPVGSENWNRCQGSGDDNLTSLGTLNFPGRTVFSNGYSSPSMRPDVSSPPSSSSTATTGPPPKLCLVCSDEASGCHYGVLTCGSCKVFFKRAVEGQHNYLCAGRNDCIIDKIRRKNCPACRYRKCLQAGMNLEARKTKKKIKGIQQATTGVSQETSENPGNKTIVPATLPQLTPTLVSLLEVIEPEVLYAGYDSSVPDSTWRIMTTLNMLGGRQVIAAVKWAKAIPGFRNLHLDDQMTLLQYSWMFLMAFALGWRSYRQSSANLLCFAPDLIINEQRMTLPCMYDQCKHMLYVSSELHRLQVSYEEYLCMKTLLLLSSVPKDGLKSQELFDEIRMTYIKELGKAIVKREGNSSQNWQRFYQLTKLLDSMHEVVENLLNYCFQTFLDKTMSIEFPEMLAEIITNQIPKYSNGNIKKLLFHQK
# Progesterone receptor = target: T4, Progesterone receptor (Homo sapiens, UniProt P06401); assay: Binding affinity to human progesterone receptor
# T4 sequence (P06401 whole entry): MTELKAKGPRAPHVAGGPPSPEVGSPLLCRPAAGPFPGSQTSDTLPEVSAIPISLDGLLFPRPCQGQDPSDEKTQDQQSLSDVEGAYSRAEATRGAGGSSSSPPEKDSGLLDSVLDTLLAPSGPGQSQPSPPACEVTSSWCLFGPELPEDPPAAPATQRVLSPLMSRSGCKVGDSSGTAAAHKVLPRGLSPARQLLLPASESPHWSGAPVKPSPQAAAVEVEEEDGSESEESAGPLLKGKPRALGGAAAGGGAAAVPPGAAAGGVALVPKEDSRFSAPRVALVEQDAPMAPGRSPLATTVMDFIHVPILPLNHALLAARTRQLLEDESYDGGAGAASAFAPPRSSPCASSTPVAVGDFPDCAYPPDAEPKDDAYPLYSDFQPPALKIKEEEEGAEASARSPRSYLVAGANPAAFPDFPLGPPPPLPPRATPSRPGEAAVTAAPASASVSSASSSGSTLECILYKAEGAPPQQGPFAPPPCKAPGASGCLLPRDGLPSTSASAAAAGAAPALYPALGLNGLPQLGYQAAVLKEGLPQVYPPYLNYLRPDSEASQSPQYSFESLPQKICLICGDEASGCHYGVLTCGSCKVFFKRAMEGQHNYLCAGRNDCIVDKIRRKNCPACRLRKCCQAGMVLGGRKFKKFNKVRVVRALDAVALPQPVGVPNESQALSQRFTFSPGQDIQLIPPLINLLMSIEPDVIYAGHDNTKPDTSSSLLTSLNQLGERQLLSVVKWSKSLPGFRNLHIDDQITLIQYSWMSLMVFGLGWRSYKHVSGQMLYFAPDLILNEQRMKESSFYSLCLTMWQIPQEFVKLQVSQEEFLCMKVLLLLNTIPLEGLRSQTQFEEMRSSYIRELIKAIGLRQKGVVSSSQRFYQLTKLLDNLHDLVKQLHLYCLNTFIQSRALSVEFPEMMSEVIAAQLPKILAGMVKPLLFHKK
# Glucocorticoid receptor [2] = target: T3, Glucocorticoid receptor; assay: Binding affinity to human glucocorticoid receptor
# Estrogen receptor beta = Estrogen receptor beta (Homo sapiens, UniProt Q92731); assay: Binding affinity to human ERbeta
# Glucocorticoid receptor [3] = target: T3, Glucocorticoid receptor; assay: Transrepression activity at GR in human SW1353 cells assessed as suppression of NFkappaB-induced IL8 production; type: cell-based
# Chain of Estrogen receptor beta (Q92731 whole entry): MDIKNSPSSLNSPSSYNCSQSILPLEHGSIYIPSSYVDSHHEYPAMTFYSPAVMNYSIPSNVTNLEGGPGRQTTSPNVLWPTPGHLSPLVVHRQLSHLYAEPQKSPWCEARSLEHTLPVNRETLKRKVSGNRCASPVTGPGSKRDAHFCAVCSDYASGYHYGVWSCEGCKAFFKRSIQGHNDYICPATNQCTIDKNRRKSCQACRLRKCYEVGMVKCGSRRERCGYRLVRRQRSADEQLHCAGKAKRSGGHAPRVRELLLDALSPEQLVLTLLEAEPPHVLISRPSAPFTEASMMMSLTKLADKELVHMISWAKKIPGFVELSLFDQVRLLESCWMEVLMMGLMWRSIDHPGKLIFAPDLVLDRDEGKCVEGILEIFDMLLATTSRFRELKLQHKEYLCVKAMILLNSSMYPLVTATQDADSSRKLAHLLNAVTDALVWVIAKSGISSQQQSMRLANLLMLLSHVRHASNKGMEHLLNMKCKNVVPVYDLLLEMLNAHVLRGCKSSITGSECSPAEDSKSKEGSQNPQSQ
IC50 (Androgen receptor) [nM],IC50 (Estrogen receptor) [nM],IC50 (Glucocorticoid receptor [1]) [nM],IC50 (Progesterone receptor) [nM],IC50 (Glucocorticoid receptor [2]) [nM],IC50 (Estrogen receptor beta) [nM],IC50 (Glucocorticoid receptor [3]) [nM],SMILES
–,–,–,–,> 1000,–,–,CC#C[C@@]1(O)CC[C@@]2(CO)c3ccc(O)cc3CC[C@@H]2C1
–,–,–,–,> 1000,–,–,CC#C[C@@]1(O)CC[C@@]2(CCO)c3ccc(O)cc3CC[C@@H]2C1
> 10000,> 10000,63,> 10000,35,> 10000,–,CC#C[C@]1(O)C[C@H]2CCc3cc(O)ccc3[C@]2(CC)C[C@@H]1O
> 10000,> 10000,–,–,360,> 10000,–,CC#C[C@]1(O)C[C@H]2CCc3cc(O)ccc3[C@]2(CC)[C@H](O)C1
–,–,> 5000,–,21,–,–,CC[C@@]12CC[C@](O)(c3ccccc3)C[C@H]1CCc1cc(O)ccc12
–,–,> 5000,–,3.5,–,–,CC#C[C@@]1(O)CC[C@@]2(/C=C/C)c3ccc(O)cc3CC[C@@H]2C1
–,–,5000,–,3.8,–,–,CC[C@@]12C[C@@H](O)[C@](O)(c3ccccc3)C[C@H]1CCc1cc(O)ccc12
–,–,1500,–,6,–,–,CC[C@@]12CC[C@](O)(c3ccccc3)C[C@H]1CCc1cc(OCc3cccnc3C)ccc12
> 10000,3400,140,750,2.5,660,–,CC[C@@]12C[C@H](O)[C@](O)(c3ccccc3)C[C@H]1CCc1cc(O)ccc12
–,–,> 5000,–,17,–,–,CC#C[C@@]1(O)CC[C@@]2(C)c3ccc(O)cc3CC[C@@H]2C1
> 10000,> 10000,15,> 10000,3.3,> 10000,–,CC#C[C@]1(O)C[C@H]2CCc3cc(OCc4cccnc4C)ccc3[C@]2(CC)C[C@@H]1O
> 1000,93,14,1100,6.2,250,34,"C=CCC12CC[C@](O)(C#CC)C[C@H]1CCc1cc(O)ccc12 (single isomer, unassigned)"

SMILES,IC50 (Androgen receptor) [nM],IC50 (Estrogen receptor) [nM],IC50 (Glucocorticoid receptor [1]) [nM],IC50 (Progesterone receptor) [nM],IC50 (Glucocorticoid receptor [2]) [nM],IC50 (Estrogen receptor beta) [nM],IC50 (Glucocorticoid receptor [3]) [nM]
CC#C[C@@]1(O)CC[C@@]2(CC)c3ccc(O)cc3CC[C@@H]2C1,420,89,14,2600,5.6,580,–
CC#C[C@@]1(O)CC[C@@]2(CC)c3ccc(OCc4ccncc4)cc3CC[C@@H]2C1,–,670,31,–,3,3500,–
CC#C[C@@]1(O)CC[C@@]2(CC)c3ccc(OCc4cccnc4C)cc3CC[C@@H]2C1,880,> 10000,6.3,–,2.3,> 10000,–
CC[C@@]12C[C@H](O)[C@H](c3ccccc3)C[C@H]1CCc1cc(O)ccc12,–,–,1100,–,1.3,–,–
CC[C@@]12C[C@H](O)[C@](O)(c3ccccc3)C[C@H]1CCc1cc(OCc3cccnc3C)ccc12,> 10000,> 10000,38,> 1000,1.5,> 10000,–
CC#C[C@@]1(O)CC[C@@]2(CCC)c3ccc(O)cc3CC[C@@H]2C1,–,–,> 5000,–,1.5,–,–
